Test results as given in patent US20220315572A1, “SUBSTITUTED CYANOPYRROLIDINES WITH ACTIVITY AS USP30 INHIBITORS” (MISSION THERAPEUTICS LIMITED, priority 2019, published 2022).

Experiments:
[1] = molecular target: T1, Cathepsin K (Homo sapiens, UniProt P43235); test: Cathepsin IC50, cathepsin K; type: biochemical
T1 sequence (P43235 115-329): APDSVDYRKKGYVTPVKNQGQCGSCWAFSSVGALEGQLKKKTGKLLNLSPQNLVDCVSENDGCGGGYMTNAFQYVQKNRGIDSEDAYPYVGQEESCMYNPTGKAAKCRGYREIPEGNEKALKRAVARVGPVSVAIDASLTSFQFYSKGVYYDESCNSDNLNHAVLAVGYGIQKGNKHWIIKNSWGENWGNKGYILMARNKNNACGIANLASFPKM

[2] = molecular target: T2, USP30 (Homo sapiens, UniProt Q70CQ3); test: USP30 biochemical IC50 assay (fluorescence polarisation); conditions: USP30 biochemical IC50 assay, exemplary compounds; read-out: IC50
T2 construct: purchased Boston Biochem E582
T2 sequence (Q70CQ3 57-517 limits assumed): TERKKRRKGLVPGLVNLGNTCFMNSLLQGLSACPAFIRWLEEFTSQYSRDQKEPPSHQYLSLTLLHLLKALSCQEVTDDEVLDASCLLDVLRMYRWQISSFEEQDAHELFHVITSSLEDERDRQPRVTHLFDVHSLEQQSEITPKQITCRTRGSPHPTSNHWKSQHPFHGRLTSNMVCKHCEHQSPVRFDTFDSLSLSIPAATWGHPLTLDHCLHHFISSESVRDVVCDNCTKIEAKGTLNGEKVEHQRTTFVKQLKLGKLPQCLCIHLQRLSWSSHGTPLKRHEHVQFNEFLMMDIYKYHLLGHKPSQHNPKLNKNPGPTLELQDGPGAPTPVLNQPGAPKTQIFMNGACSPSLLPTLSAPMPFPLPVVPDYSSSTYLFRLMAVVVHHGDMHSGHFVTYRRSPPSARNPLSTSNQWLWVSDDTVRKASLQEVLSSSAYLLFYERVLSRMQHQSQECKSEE
Experimental: Dilution plates were prepared at 21 times the final concentration (2100 μM for a final concentration of 100 μM) in 50% DMSO in a 96-well polypropylene V-bottom plate (Greiner #651201). A typical 8-point dilution series would be 100, 30, 10, 3, 1, 0.3, 0.1, 0.03 μM final. Reactions were performed in duplicate in black 384 well plates (small volume, Greiner 784076) in a final reaction volume of 21 μl. Either […] of 50% DMSO or diluted compound was added to the plate. USP30 (Boston Biochem #E582) was diluted in reaction buffer (40 mM Tris, pH 7.5, 0.005% Tween 20, 0.5 mg/ml BSA, 5 mM beta-mercaptoethanol) to achieve a final assay concentration of 4 nM, and 10 μl of diluted USP30 was added to the compound. Enzyme and compound were incubated for 30 min at room temp. Reactions were initiated by the addition of 50 nM of TAMRA labelled peptide linked to ubiquitin via an iso-peptide bond as fluorescence polarisation substrate. Reactions were read immediately after addition of substrate and following a 2-hour incubation at room temperature. Readings were performed on a Pherastar Plus (BMG Labtech). λ Excitation 540 nm; λ Emission 590 nm.

[3] = tested on: HCT116 human colorectal carcinoma cells; test: In vitro cytotoxicity (Cell Tox), alamarBlue; type: cell-based
Source text: There is also a need for compounds that have a favourable safety profile, which may be measured by a variety of standard in vitro and in vivo methods. A cell toxicity counter-screen may be used to assay the anti-proliferative/cytotoxic effect in a particular cell line (e.g. HCT116) by fluorometric detection of rezasurin (alamarBlue) to resofurin in response to mitochondrial activity.
In Vitro Cytotoxicity (Cell Tox): Measured in HCT116 human colorectal carcinoma cells using alamarBlue as the assay endpoint. Compound cytotoxicity was measured over a period of 96-hour continual compound exposure.

[4] = tested on: USP2, USP10, USP16, USP21, USP22, USP25, USP28, USP35, USP46; test: DUB biochemical IC50 assays, nine DUBs; conditions: range over the nine DUBs
[5] = tested on: Cathepsins B, K, L, S, V; test: Cathepsin IC50, range over B, K, L, S, V; type: biochemical
[6] = molecular target: T3, Endogenous USP30 (Homo sapiens, UniProt Q70CQ3); test: USP30 endogenous cellular target engagement western blot assay (Cell TE WB); type: cell-based; conditions: Hela cells stably overexpressing YFP-Parkin, 1 hour
T3 construct: USP30 endogenous cellular target engagement western blot (WB) assay; endogenous in cells; host or cells: HeLa stably overexpressing YFP-Parkin
T3 sequence (Q70CQ3 1-517): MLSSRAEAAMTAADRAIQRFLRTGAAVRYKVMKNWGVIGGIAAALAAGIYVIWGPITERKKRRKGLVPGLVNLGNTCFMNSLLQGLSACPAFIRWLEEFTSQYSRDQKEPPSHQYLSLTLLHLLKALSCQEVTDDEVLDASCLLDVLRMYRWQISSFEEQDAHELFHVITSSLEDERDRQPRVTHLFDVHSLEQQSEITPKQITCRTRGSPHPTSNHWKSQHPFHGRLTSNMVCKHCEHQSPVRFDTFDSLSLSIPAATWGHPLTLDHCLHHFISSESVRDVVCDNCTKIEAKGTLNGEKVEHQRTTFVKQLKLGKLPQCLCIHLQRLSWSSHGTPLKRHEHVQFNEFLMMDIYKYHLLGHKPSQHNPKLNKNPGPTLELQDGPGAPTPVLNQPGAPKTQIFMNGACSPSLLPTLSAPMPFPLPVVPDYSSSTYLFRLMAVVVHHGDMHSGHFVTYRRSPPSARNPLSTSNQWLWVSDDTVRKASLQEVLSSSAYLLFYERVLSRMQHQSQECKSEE
Experimental: Hela cells stably overexpressing YFP-Parkin were seeded into 6 well dishes. Once adhered, cells were treated with appropriate concentrations of test compounds or vehicle control for 1 hour at 37° C., 5% CO2. Whole cell lysates were prepared by scraping the cells into cold PBS, centrifuging and lysing in lysis buffer (50 mM Tris-base, pH 7.5, 50 mM NaCl, 1% NP-40/Igepal CA-630, 2 mM MgCl2, 10% Glycerol, 5 mM beta-mercaptoethanol, cOmplete mini tablets EDTA free (Roche), PhosStop tablets (Roche)) for 10 mins. The equivalent of 20 μg of protein from the cleared cell lysate was incubated with a final conc of 2.5 μM HA-Ahx-Ahx-Ub-VME probe at room temperature. The reaction was stopped by addition of 5×SDS sample loading buffer and proteins separated by SDS PAGE and western blotting. USP30 was detected using an anti-USP30 Sheep S746D antibody (MRC PPU Reagents and Services) and a rabbit anti sheep secondary IgG (H+L) horseradish peroxidase conjugated (Thermo #31480) and visualised using ECL reagent (GE #RPN2109) on a GE LAS4000 imager. Target engagement was measured by quantitation of the bands corresponding to USP30 and USP30 bound to the Ub-VME probe and expression of this proportion compared to vehicle treated control.
Cell TE WB: USP30 endogenous cellular target engagement western blot (WB) assay. Assays the activity of compounds against USP30 in cells using an irreversible activity probe to monitor USP30 activity.

[7] = molecular target: Cathepsin V (Homo sapiens, UniProt O60911); test: Cathepsin IC50, cathepsin V; type: biochemical
[8] = molecular target: T4, UCHL1 (Homo sapiens, UniProt P09936); test: DUB biochemical IC50 assay, UCHL1
T4 sequence (P09936 1-223): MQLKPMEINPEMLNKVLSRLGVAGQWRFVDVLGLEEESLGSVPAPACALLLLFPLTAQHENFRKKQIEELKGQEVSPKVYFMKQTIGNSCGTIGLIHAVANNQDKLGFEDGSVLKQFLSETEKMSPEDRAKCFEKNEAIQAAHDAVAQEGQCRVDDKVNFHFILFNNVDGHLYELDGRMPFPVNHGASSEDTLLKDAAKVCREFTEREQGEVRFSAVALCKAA

[9] = molecular target: Cathepsin B (Homo sapiens, UniProt P07858); test: Cathepsin IC50, cathepsin B; type: biochemical
[10] = molecular target: Cathepsin L (Homo sapiens, UniProt P07711); test: Cathepsin IC50, cathepsin L; type: biochemical
[11] = molecular target: Cathepsin S (Homo sapiens, UniProt P25774); test: Cathepsin IC50, cathepsin S; type: biochemical
Sequence of Cathepsin S (P25774 115-331, species assumed): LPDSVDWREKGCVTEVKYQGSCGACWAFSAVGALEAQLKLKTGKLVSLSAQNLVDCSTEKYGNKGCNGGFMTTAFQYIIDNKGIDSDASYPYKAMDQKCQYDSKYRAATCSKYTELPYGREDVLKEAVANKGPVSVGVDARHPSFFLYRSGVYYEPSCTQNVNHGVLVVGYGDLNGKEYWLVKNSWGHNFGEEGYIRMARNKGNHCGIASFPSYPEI

Sequence of Cathepsin L (P07711 114-333, species assumed): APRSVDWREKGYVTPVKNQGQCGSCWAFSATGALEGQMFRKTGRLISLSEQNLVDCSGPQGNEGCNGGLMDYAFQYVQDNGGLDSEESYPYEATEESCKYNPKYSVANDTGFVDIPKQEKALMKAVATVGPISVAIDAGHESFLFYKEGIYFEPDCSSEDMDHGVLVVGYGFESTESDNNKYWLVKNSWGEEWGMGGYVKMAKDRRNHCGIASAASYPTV
Sequence of Cathepsin V (O60911 114-334, species assumed): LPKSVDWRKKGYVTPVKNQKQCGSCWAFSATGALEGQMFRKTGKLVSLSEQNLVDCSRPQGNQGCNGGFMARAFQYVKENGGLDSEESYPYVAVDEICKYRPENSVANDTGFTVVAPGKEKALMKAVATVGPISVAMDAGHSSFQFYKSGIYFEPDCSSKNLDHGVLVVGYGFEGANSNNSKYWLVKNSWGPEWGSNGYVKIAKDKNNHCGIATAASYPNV

COC[C@@H]1C[C@@H](NC(=O)c2nnc(-c3cc(C#N)ccc3OC)o2)CN1C#N [Example 4, 5-(5-Cyano-2-methoxyphenyl)-N-((3R,5S)-1-cyano-5-(methoxymethyl)pyrrolidine-3-yl)-1,3,4-oxadiazole-2-carboxamide]
IC50 [1]: 44.5 µM
IC50 [2]: 29 nM
Cell Tox EC50/USP30 IC50 [3]: >1000
EC50 ([3]; Homo sapiens, HCT-116, 96-hour continual compound exposure, alamarBlue): > 30 µM
DUB selectivity preference for USP30 v 9 DUBs [4]: 365-10300
IC50 ([4]; Ref. Ex. C excl. USP22, Ref. Ex. D excl. USP2, 46): ≥ 10.6 µM
Selectivity preference for USP30 v cathepsins ([5]; range over cathepsins B, K, L, S, V): 1500-7800
IC50 ([5]; range over the five cathepsins): 44.5 to 226 µM
EC50 [6]: 87 nM
IC50 [7]: 223 µM
DUB selectivity preference for USP30 v UCHL1 [8]: 10300
IC50 [8]: > 300 µM
IC50 [9]: 111 µM
IC50 [10]: 54.5 µM
IC50 [11]: 226 µM
